Columns and labels:
Format in all cases: cell-based
[1] = biological target: proteins of U3A human fibrosarcoma cells (4462 proteins detected) (Homo sapiens, UniProt Q92688); conditions: protein ANP32B, U3A cells
[2] = biological target: proteins of U3A human fibrosarcoma cells (4462 proteins detected) (Homo sapiens, UniProt Q9ULU4); conditions: protein ZMYND8; U3A cells
[3] = biological target: proteins of U3A human fibrosarcoma cells (4462 proteins detected) (Homo sapiens, UniProt P13489); conditions: protein RNH1; U3A cells
Sequence of proteins of U3A human fibrosarcoma cells (4462 proteins detected) (Homo sapiens, UniProt P13489) (P13489 whole entry): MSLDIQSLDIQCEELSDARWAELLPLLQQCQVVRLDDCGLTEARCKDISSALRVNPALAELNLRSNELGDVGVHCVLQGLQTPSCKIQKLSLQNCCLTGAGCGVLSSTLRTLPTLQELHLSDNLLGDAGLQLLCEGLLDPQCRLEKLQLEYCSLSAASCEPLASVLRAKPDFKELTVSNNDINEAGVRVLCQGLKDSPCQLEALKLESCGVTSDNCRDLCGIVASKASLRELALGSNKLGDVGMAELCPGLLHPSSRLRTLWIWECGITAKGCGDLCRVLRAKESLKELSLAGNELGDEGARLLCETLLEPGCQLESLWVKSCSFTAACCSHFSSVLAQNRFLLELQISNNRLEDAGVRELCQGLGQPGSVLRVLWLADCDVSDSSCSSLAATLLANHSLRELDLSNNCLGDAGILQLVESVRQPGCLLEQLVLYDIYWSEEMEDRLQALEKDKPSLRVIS

[4] = biological target: proteins of U3A human fibrosarcoma cells (4462 proteins detected) (Homo sapiens, UniProt Q9UMS4); conditions: protein PRPF19; U3A cells
Sequence of proteins of U3A human fibrosarcoma cells (4462 proteins detected) (Homo sapiens, UniProt Q9UMS4) (Q9UMS4 whole entry): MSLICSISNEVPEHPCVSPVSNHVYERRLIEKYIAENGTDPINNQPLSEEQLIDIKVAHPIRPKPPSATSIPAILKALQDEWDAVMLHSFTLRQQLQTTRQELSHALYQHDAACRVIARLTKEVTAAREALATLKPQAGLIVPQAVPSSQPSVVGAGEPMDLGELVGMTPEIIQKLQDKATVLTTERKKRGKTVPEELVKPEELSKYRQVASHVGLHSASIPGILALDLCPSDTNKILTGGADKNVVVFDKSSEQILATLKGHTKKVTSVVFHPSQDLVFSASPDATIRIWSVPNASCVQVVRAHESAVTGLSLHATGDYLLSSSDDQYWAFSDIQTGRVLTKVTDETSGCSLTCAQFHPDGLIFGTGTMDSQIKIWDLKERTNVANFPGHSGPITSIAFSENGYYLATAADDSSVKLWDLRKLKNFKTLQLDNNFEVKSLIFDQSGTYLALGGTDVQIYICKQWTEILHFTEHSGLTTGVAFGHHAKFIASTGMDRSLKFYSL

[5] = biological target: proteins of U3A human fibrosarcoma cells (4462 proteins detected) (Homo sapiens, UniProt P62873); conditions: protein GNB1; U3A cells
[6] = biological target: proteins of U3A human fibrosarcoma cells (4462 proteins detected) (Homo sapiens, UniProt O00299); conditions: protein CLIC1, U3A cells
[7] = biological target: proteins of U3A human fibrosarcoma cells (4462 proteins detected) (Homo sapiens, UniProt P62993); conditions: protein GRB2, U3A cells
Sequence of proteins of U3A human fibrosarcoma cells (4462 proteins detected) (Homo sapiens, UniProt P62993) (P62993 whole entry): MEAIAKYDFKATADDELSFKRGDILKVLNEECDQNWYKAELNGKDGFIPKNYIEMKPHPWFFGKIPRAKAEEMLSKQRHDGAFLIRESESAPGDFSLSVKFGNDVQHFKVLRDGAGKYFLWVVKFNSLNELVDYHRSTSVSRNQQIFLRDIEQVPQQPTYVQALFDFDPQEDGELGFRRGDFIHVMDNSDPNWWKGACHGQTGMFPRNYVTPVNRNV

[8] = biological target: proteins of U3A human fibrosarcoma cells (4462 proteins detected) (Homo sapiens, UniProt Q13185); conditions: protein CBX3, U3A cells
[9] = biological target: proteins of U3A human fibrosarcoma cells (4462 proteins detected) (Homo sapiens, UniProt Q9UHN1); conditions: protein POLG2; soluble abundance after heat, U3A cells
Sequence of proteins of U3A human fibrosarcoma cells (4462 proteins detected) (Homo sapiens, UniProt Q9UHN1) (Q9UHN1 whole entry): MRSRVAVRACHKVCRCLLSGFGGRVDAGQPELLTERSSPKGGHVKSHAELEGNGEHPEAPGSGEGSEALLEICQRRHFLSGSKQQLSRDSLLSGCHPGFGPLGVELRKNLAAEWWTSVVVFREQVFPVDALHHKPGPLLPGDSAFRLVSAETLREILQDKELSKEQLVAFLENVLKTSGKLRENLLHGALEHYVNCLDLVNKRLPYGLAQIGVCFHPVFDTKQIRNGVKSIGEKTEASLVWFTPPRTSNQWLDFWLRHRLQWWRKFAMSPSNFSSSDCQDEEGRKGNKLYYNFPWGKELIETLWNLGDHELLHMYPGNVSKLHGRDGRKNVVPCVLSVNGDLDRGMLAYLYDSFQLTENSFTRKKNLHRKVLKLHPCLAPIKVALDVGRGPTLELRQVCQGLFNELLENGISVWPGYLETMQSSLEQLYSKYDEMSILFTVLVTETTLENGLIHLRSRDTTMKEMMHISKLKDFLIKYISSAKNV

[10] = biological target: proteins of U3A human fibrosarcoma cells (4462 proteins detected) (Homo sapiens, UniProt P46087); conditions: protein NOP2; U3A cells
[11] = biological target: proteins of U3A human fibrosarcoma cells (4462 proteins detected) (Homo sapiens, UniProt O15042); conditions: protein U2SURP; U3A cells
Sequence of proteins of U3A human fibrosarcoma cells (4462 proteins detected) (Homo sapiens, UniProt O15042) (O15042 whole entry): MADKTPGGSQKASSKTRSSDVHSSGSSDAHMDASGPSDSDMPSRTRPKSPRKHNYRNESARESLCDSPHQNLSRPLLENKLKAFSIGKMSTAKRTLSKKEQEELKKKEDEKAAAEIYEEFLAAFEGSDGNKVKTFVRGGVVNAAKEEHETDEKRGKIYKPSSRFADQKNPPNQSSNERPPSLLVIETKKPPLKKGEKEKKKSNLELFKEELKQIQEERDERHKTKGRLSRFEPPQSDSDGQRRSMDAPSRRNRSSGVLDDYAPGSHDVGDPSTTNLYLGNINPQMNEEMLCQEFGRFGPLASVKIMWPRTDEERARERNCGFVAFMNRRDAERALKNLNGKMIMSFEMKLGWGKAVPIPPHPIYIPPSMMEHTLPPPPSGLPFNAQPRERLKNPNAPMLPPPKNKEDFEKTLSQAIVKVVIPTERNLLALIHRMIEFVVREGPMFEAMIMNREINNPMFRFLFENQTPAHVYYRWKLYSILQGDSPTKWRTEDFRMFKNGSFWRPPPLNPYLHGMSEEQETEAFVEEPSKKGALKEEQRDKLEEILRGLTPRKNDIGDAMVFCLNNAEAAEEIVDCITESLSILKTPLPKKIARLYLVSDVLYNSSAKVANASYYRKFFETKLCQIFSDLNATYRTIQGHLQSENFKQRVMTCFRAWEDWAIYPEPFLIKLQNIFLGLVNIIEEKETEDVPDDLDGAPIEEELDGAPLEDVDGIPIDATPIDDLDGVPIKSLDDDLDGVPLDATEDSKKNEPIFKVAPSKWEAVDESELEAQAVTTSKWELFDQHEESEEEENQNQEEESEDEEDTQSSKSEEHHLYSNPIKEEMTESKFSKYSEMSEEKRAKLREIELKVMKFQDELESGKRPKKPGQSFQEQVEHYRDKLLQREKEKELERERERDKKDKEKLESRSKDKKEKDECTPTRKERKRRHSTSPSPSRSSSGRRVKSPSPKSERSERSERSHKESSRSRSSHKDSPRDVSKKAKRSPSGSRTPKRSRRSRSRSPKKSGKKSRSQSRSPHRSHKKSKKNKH

[12] = biological target: proteins of U3A human fibrosarcoma cells (4462 proteins detected) (Homo sapiens, UniProt Q9UNM6); conditions: protein PSMD13; U3A cells
[13] = biological target: proteins of U3A human fibrosarcoma cells (4462 proteins detected) (Homo sapiens, UniProt Q9GZV4); conditions: protein EIF5A2; U3A, 10 μM, 2 h
[14] = biological target: proteins of U3A human fibrosarcoma cells (4462 proteins detected) (Homo sapiens, UniProt P30419); conditions: protein NMT1, U3A cells
[15] = biological target: proteins of U3A human fibrosarcoma cells (4462 proteins detected) (Homo sapiens, UniProt Q9Y3A4); conditions: protein RRP7A; U3A cells
[16] = biological target: proteins of U3A human fibrosarcoma cells (4462 proteins detected) (Homo sapiens, UniProt P11388); conditions: protein TOP2A; U3A cells
[17] = biological target: proteins of U3A human fibrosarcoma cells (4462 proteins detected) (Homo sapiens, UniProt O95487); conditions: protein SEC24B, U3A cells
[18] = biological target: proteins of U3A human fibrosarcoma cells (4462 proteins detected) (Homo sapiens, UniProt Q9UEY8); conditions: protein ADD3; U3A cells
Sequence of proteins of U3A human fibrosarcoma cells (4462 proteins detected) (Homo sapiens, UniProt Q9UEY8) (Q9UEY8 whole entry): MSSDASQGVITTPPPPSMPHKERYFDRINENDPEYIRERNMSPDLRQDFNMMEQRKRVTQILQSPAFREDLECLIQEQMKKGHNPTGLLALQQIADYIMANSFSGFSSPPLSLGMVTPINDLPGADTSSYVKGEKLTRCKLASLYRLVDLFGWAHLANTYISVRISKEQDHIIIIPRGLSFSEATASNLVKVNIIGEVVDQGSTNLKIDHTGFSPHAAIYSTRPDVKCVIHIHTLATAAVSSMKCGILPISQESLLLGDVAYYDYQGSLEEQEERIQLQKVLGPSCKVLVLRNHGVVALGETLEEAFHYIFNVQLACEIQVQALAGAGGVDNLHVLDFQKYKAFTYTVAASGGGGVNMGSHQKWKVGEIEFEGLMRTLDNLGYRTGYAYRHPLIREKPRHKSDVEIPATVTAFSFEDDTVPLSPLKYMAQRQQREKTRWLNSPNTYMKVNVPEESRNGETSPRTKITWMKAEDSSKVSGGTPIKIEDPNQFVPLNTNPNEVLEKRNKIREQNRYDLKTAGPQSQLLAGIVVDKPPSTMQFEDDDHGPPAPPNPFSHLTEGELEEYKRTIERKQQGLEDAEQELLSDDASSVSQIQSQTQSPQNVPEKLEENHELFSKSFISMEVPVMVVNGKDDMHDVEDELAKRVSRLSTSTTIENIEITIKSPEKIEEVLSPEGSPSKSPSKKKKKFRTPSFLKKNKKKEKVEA

[19] = biological target: proteins of U3A human fibrosarcoma cells (4462 proteins detected) (Homo sapiens, UniProt Q9P2R7); conditions: protein SUCLA2; U3A, 10 μM, 2 h
[20] = biological target: proteins of U3A human fibrosarcoma cells (4462 proteins detected) (Homo sapiens, UniProt Q9UPN9); conditions: protein TRIM33; U3A cells
[21] = biological target: proteins of U3A human fibrosarcoma cells (4462 proteins detected) (Homo sapiens, UniProt Q03252); conditions: protein LMNB2; U3A cells
[22] = biological target: proteins of U3A human fibrosarcoma cells (4462 proteins detected) (Homo sapiens, UniProt Q15365); conditions: protein PCBP1; U3A cells
Sequence of proteins of U3A human fibrosarcoma cells (4462 proteins detected) (Homo sapiens, UniProt Q15365) (Q15365 whole entry): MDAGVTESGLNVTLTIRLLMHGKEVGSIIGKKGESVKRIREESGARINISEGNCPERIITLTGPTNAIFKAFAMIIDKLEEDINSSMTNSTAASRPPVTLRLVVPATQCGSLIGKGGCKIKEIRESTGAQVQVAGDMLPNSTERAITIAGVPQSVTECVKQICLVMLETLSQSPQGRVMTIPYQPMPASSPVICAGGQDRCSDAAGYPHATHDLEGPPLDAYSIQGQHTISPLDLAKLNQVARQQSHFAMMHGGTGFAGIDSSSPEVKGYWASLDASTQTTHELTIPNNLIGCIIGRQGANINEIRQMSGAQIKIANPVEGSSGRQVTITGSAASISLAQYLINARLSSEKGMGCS

[23] = biological target: proteins of U3A human fibrosarcoma cells (4462 proteins detected) (Homo sapiens, UniProt Q9UNZ2); conditions: protein NSFL1C, U3A cells
Sequence of proteins of U3A human fibrosarcoma cells (4462 proteins detected) (Homo sapiens, UniProt Q9UNZ2) (Q9UNZ2 whole entry): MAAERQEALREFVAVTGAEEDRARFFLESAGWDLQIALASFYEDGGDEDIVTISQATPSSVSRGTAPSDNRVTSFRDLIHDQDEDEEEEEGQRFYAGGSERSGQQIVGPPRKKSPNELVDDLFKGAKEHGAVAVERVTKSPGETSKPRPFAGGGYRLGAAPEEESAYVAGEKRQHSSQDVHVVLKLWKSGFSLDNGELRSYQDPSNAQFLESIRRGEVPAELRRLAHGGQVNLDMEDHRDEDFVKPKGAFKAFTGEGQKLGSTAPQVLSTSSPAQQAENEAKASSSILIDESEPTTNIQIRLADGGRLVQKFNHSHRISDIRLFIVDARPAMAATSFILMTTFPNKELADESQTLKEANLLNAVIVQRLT

[24] = biological target: proteins of U3A human fibrosarcoma cells (4462 proteins detected) (Homo sapiens, UniProt P26006); conditions: protein ITGA3; U3A cells
[25] = biological target: proteins of U3A human fibrosarcoma cells (4462 proteins detected) (Homo sapiens, UniProt Q8IYW5); conditions: protein RNF168; U3A cells
Sequence of proteins of U3A human fibrosarcoma cells (4462 proteins detected) (Homo sapiens, UniProt Q8IYW5) (Q8IYW5 whole entry): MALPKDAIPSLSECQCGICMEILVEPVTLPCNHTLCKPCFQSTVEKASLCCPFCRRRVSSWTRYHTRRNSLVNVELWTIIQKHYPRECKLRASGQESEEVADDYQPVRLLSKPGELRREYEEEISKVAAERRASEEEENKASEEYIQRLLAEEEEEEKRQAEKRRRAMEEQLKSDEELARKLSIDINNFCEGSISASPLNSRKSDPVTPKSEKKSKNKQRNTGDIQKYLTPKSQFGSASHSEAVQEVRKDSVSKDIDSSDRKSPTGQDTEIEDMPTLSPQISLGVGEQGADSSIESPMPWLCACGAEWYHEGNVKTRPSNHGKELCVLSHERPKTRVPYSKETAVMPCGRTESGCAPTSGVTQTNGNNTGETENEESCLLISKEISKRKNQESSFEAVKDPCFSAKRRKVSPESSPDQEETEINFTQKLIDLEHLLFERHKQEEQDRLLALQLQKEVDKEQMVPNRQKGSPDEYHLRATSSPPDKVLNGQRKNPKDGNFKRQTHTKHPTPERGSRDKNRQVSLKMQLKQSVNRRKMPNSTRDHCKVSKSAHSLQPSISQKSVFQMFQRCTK

[26] = biological target: proteins of U3A human fibrosarcoma cells (4462 proteins detected) (Homo sapiens, UniProt Q9NVT9); conditions: protein ARMC1; U3A cells
[27] = biological target: proteins of U3A human fibrosarcoma cells (4462 proteins detected) (Homo sapiens, UniProt Q15269); conditions: protein PWP2; U3A cells
[28] = biological target: proteins of U3A human fibrosarcoma cells (4462 proteins detected) (Homo sapiens, UniProt Q06323); conditions: protein PSME1; soluble abundance after heat, U3A cells
Sequence of proteins of U3A human fibrosarcoma cells (4462 proteins detected) (Homo sapiens, UniProt Q06323) (Q06323 whole entry): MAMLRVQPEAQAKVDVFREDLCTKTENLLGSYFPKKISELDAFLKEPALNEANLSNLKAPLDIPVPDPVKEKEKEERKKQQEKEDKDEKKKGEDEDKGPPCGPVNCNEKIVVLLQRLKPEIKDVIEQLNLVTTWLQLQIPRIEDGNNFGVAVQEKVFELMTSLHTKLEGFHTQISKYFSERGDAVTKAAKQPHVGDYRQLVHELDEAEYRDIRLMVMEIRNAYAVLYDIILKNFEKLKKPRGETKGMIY

[29] = biological target: proteins of U3A human fibrosarcoma cells (4462 proteins detected) (Homo sapiens, UniProt P52272); conditions: protein HNRNPM; U3A cells
[30] = biological target: proteins of U3A human fibrosarcoma cells (4462 proteins detected) (Homo sapiens, UniProt P54920); conditions: protein NAPA; soluble abundance after heat, U3A cells

With `CCc1nc(N)nc(N)c1-c1ccc(Cl)cc1` [pyrimethamine] the “Log2 (PYR/DMSO)” value [1] was -0.03, the “Log2 (PYR/DMSO)” value [2] was 0.16 and the “Log2 (PYR/DMSO)” value [3] was 0.18. For the same compound, the “Log2 (PYR/DMSO)” value [4] was 0.17, the “Log2 (PYR/DMSO)” value [5] was 0.22 and the “Log2 (PYR/DMSO)” value [6] was -0.03. The “Log2 (PYR/DMSO)” value [7] was -0.04, the “Log2 (PYR/DMSO)” value [8] was -0.05 and the “Log2 (PYR/DMSO)” value [9] was 0.15. For the same compound, the “Log2 (PYR/DMSO)” value [10] was 0.16, the “Log2 (PYR/DMSO)” value [11] was 0.18 and the “Log2 (PYR/DMSO)” value [12] was 0.17. The “Log2 (PYR/DMSO), EIF5A2” value [13] was -0.18, the “Log2 (PYR/DMSO)” value [14] was -0.05 and the “Log2 (PYR/DMSO)” value [15] was 0.19. The “Log2 (PYR/DMSO)” value [16] was 0.18, the “Log2 (PYR/DMSO)” value [17] was -0.04 and the “Log2 (PYR/DMSO)” value [18] was 0.16. The “Log2 (PYR/DMSO), SUCLA2” value [19] was 0.23, the “Log2 (PYR/DMSO)” value [20] was 0.16 and the “Log2 (PYR/DMSO)” value [21] was 0.19. The “Log2 (PYR/DMSO)” value [22] was 0.18, the “Log2 (PYR/DMSO)” value [23] was -0.04 and the “Log2 (PYR/DMSO)” value [24] was 0.16. The “Log2 (PYR/DMSO)” value [25] was 0.17, the “Log2 (PYR/DMSO)” value [26] was 0.16 and the “Log2 (PYR/DMSO)” value [27] was 0.18. For the same compound, the “Log2 (PYR/DMSO)” value [28] was 0.14, the “Log2 (PYR/DMSO)” value [29] was 0.16 and the “Log2 (PYR/DMSO)” value [30] was 0.14.
